According to ChEMBL document CHEMBL4406920, “Tetrazole as a Replacement of the Electrophilic Group in Characteristic Prolyl Oligopeptidase Inhibitors” (ACS Med Chem Lett, 2019):

Target: Prolyl endopeptidase (Mus musculus, UniProt Q9QUR6)
Experiment: Inhibition of PREP in C57BL/6 mouse cortex homogenate assessed as formation of 7-amido-4-methylcoumarin using Suc-Gly-Pro-amido-4-methylcoumarin as substrate preincubated for 30 mins followed by substrate addition measured after 60 mins by fluorometric assay

Sequence of Prolyl endopeptidase (Mus musculus, UniProt Q9QUR6) (Q9QUR6 whole entry): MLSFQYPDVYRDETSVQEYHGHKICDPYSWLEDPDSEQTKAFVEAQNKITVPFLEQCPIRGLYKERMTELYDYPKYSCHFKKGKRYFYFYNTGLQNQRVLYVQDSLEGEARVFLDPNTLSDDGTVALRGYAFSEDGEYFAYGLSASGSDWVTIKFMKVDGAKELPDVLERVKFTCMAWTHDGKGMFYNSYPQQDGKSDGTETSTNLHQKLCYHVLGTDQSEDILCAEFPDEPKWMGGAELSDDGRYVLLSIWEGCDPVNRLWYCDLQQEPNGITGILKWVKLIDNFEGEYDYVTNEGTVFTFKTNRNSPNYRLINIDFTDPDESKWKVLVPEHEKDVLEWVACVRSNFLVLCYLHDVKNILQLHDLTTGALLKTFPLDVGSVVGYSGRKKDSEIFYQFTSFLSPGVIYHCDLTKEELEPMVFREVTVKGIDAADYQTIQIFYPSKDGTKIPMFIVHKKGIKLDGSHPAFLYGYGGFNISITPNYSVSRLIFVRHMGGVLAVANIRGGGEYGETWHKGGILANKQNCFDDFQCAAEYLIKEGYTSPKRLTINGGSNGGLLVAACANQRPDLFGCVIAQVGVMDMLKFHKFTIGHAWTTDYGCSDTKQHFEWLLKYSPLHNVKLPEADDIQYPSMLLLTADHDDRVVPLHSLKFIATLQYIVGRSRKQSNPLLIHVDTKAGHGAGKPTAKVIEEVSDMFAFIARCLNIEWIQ

| Compound | IC50 |
| --- | --- |
| CN(CC(=O)N1CCC[C@H]1C(N)=O)C(=O)CCCc1ccccc1 | 457 µM |
| N#C[C@@H]1CCCN1C(=O)CNC(=O)CCCc1ccccc1 | 0.264 µM |
| C[C@@H](C(=O)N1CCC[C@H]1C(N)=O)N(C)C(=O)CCCc1ccccc1 | 28.8 µM |
| CC(C)(NC(=O)CCCc1ccccc1)C(=O)N1CCCC1 | 13.5 µM |
| CN(CC(=O)N1CCCC1)C(=O)CCCc1ccccc1 | 5.14 µM |
| C[C@@H](NC(=O)CCCc1ccccc1)C(=O)N1CCCC1 | 35.2 µM |
| O=C(CCCc1ccccc1)NCCC(=O)N1CCCC1 | 12.1 µM |
| C[C@H](NC(=O)CCCc1ccccc1)C(=O)N1CCC[C@H]1C(N)=O | 6.21 µM |

Second part, the molecule after the results:

| IC50 | Compound |
| --- | --- |
| 154 µM | NC(=O)[C@@H]1CCCN1C(=O)CNC(=O)CCCc1ccccc1 |
| 0.091 µM | C[C@H](NC(=O)CCCc1ccccc1)C(=O)N1CCC[C@H]1c1nnn[nH]1 |
| 0.00328 µM | C[C@H](NC(=O)CCCc1ccccc1)C(=O)N1CCC[C@H]1C#N |
| 0.298 µM | C[C@@H](C(=O)N1CCCC1)N(C)C(=O)CCCc1ccccc1 |

Target: Prolyl endopeptidase (Sus scrofa, UniProt P23687)
Experiment: Inhibition of recombinant porcine brain PREP expressed in Escherichia coli assessed as formation of 7-amido-4-methylcoumarin using Suc-Gly-Pro-amido-4-methylcoumarin as substrate preincubated for 30 mins followed by substrate addition measured after 60 mins by fluorometric assay

Sequence of Prolyl endopeptidase (Sus scrofa, UniProt P23687) (P23687 whole entry): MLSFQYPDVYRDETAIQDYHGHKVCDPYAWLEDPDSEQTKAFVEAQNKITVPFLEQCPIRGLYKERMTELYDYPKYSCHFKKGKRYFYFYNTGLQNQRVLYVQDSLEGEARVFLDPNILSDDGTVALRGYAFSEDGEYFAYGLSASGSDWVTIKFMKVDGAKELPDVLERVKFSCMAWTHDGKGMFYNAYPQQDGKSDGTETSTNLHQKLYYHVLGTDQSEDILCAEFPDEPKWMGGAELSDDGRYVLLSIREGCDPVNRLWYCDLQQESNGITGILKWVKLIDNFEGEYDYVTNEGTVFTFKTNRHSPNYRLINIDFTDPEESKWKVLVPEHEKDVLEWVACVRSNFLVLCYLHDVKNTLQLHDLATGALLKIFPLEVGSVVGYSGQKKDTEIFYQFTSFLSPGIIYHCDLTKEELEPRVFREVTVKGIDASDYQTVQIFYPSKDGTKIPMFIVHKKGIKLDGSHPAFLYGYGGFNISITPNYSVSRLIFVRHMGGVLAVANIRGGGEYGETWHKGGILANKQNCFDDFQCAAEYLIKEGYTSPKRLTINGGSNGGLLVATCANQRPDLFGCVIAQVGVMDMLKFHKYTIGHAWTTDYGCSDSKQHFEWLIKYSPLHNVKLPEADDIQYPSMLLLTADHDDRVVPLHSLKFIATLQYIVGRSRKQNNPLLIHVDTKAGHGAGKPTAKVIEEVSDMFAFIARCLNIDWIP

| Compound | IC50 |
| --- | --- |
| N#C[C@@H]1CCCN1C(=O)CNC(=O)CCCc1ccccc1 | 0.22 µM |
| O=C(CCCc1ccccc1)NCC(=O)N1CCC[C@H]1c1nnn[nH]1 | 205 µM |
| CN(CC(=O)N1CCC[C@H]1c1nnn[nH]1)C(=O)CCCc1ccccc1 | 10.6 µM |
| C[C@H](NC(=O)CCCc1ccccc1)C(=O)N1CCCC1 | 0.147 µM |

Other lines, results leading:

| IC50 | Compound |
| --- | --- |
| 0.012 µM | O=C(CCCc1ccccc1)N1CCC[C@H]1C(=O)N1CCC[C@H]1c1nnn[nH]1 |
| 27.2 µM | C[C@@H](C(=O)N1CCC[C@H]1c1nnn[nH]1)N(C)C(=O)CCCc1ccccc1 |
| 0.0054 µM | C[C@@H](C(=O)N1CCC[C@H]1C#N)N(C)C(=O)CCCc1ccccc1 |
| 17.5 µM | C[C@H](NC(=O)CCCc1ccccc1)C(=O)N1CCC[C@H]1C(=O)O |
| 4.37 µM | NC(=O)[C@@H]1CCCN1C(=O)[C@@H]1CCCN1C(=O)CCCc1ccccc1 |
| 0.269 µM | CN(CC(=O)N1CCC[C@H]1C#N)C(=O)CCCc1ccccc1 |
| 0.00406 µM | C[C@H](NC(=O)CCCc1ccccc1)C(=O)N1CCC[C@H]1C#N |
| 3.63 µM | O=C(O)[C@@H]1CCCN1C(=O)[C@@H]1CCCN1C(=O)CCCc1ccccc1 |
